# According to patent US20240293551A1, “USE OF ST-TYPE LIPID COMPOUNDS IN PREPARATION OF NUCLEIC ACID DELIVERY REAGENT AND RELATED PRODUCT” (INSTITUTE OF BASIC MEDICAL SCIENCES CHINESE ACADEMY OF …, priority 2021, published 2024):
# Tested on: PGY-sRNA-26
# Assay: In vivo delivery study of lipid-nucleic acid mixture (oral gavage, RT-qPCR of PGY-sRNA-26 in tissues)
# Set-up: species or system mouse
# Conditions: C57BL/6 mice, gavage, 100 μg lipid: 10 nmol PGY-sRNA-26, 12 hours; for delivery efficacy over each tissue and blood tested (broad-spectrum delivery): all tissues and blood tested; for oral delivery of single-stranded sRNA nucleic acids into mouse intestinal tissue: intestine
# Procedure: 10 nmol of small RNA (as shown in Table 2) was dissolved in 400 μl of DEPC-treated water in a glass tube, 10 μl of the corresponding lipid stock solution was added such that the lipid mass in the system was 100 μg. The mixture was mixed thoroughly, heated in a 90° C. water bath for 15 minutes, and then cooled naturally to obtain the lipid nucleic acid mixture of lipid and small RNA.
# C57BL/6 male mice, approximately 6 weeks old, weighing 20-24 g, were obtained from Beijing Vital River Laboratory Animal Technology Co., Ltd. The mice were housed in the SPF-grade animal facility at the Animal Center of the Institute of Basic Medical Sciences, Chinese Academy of Medical Sciences. The mice were fasted for 12 hours before gavage administration.
# The resultant lipid nucleic acid mixture was orally administered to each mouse at a dose of 100 μg lipid: 10 nmol single-stranded 3′-methylated small RNA PGY-sRNA-26.
# • 1) Blank group (n=4): mice were administered with 500 μl saline by gavage, this group served as a blank control; • 2) Free uptake group (n=4): mice were directly administered with small RNA PGY-sRNA-26 solution (10 nmol/mouse, 500 μl) by gavage, this group served as a negative control; • 3) Lipid-treated group (n=4): mice were administered with 500 μl lipid nucleic acid mixture prepared in step 2 by gavage.
# After 12 hours of gavage administration, 500 μl blood from the eyeball of each mouse was sampled, added to 1.5 ml Trizol Reagent LS (purchased from Invitrogen), thoroughly mixed for lysis. 3 ml of Trizol Reagent LSwas added to tissue samples and homogenized for complete lysis, wherein the sampled tissues include heart, liver, spleen, lung, kidney, stomach, intestine, brain, blood, femur. RNA was extracted from 1 ml of the blood or the tissue lysate following the steps below: • Centrifuge at 4° C., 12,000 rpm for 5 min, discard the precipitate, transfer Trizol to a new centrifuge tube; • Add chloroform at 200 μL chloroform/mL Trizol, shake well, stand at room temperature for 5 min; • Centrifuge at 4° C., 12,000 rpm for 15 min; • Take the upper aqueous phase to another centrifuge tube, add isopropanol at 0.4 mL isopropanol/mL Trizol, mix well, and stand at low temperature for 10-20 min; • Centrifuge at 4° C., 12,000 rpm for 15 min, discard the supernatant, RNA precipitated at the bottom of the tube; • Add 1 mL of 75% ethanol, gently shake the centrifuge tube, suspend the precipitate; • Centrifuge at 4° C., 12,000 rpm for 15 min, discard the supernatant, add 1 mL of 75% ethanol, gently shake the centrifuge tube, suspend the precipitate; • Centrifuge at 4° C., 12,000 rpm for 15 min, discard the supernatant, air-dry at room temperature, dissolve RNA samples in 50 μL RNase-free H2O, measure OD value to quantify RNA concentration. 3.3 Reverse Transcription of sRNA to cDNA:
# The reverse transcription system is as follows: Template RNA (200 ng/μL) 10 μL, 10×RT Buffer 2.0 μL, 25×dNTP Mix (100 mM) 0.8 μL, U6 RT stem-loop primer (10 μM) 2.0 μL, PGY-sRNA-26 RT stem-loop primer (10 μM) 2.0 μL, MultiScribe™ Reverse Transcriptase (50 U/μL) 1.0 μL, RNAse Inhibitor (40 U/μL) 1.0 μL, nuclease-free H2O 1.2 μL. After transient centrifugation, the reverse transcription system was placed in a PCR machine with the following reaction conditions: (1) 25° C., 10 min; (2) 37° C., 120 min; (3) 85° C., 5 min; (4) 4° C., stop reaction. After the reaction, add 20 μL RNAse-free ddH2O, adjust the final volume to 40 μL. The stem-loop primers used in this reverse transcription process were synthesized by Beijing Tianyi Huiyuan Biotechnology Co., Ltd. (U6 was used as a standard reference gene to calculate its relative expression, because U6 RT primer was used as a reference gene in relative quantification of RT-qPCR reactions for small RNA): […]
structure (smiles),measurement,value
CC(C)[C@H](C)[C@@H](O)[C@H](O)[C@@H](C)[C@H]1CC[C@H]2[C@@H]3COC(=O)[C@H]4C[C@H](O)[C@H](O)C[C@]4(C)[C@H]3CC[C@]12C [Lipid 508],delivery efficacy over each tissue and blood tested (broad-spectrum delivery),exhibited the best delivery efficacy
same,oral delivery of single-stranded sRNA nucleic acids into mouse blood,can effectively orally deliver
same,oral delivery of single-stranded sRNA nucleic acids into mouse brain tissue,can effectively orally deliver
same,oral delivery of single-stranded sRNA nucleic acids into mouse heart tissue,can effectively orally deliver
same,oral delivery of single-stranded sRNA nucleic acids into mouse intestinal tissue,can effectively orally deliver
same,oral delivery of single-stranded sRNA nucleic acids into mouse kidney tissue,can effectively orally deliver
same,oral delivery of single-stranded sRNA nucleic acids into mouse liver tissue,can effectively orally deliver
same,oral delivery of single-stranded sRNA nucleic acids into mouse lung tissue,can effectively orally deliver
same,oral delivery of single-stranded sRNA nucleic acids into mouse spleen tissue,can effectively orally deliver
same,oral delivery of single-stranded sRNA nucleic acids into mouse stomach tissue,can effectively orally deliver
C[C@]1(O)CC[C@H]2[C@@H]3CCC4=CC(=O)CC[C@]4(C)[C@@]3(F)[C@@H](O)C[C@@]21C [Lipid 532],delivery efficacy over each tissue and blood tested (broad-spectrum delivery),exhibited the best delivery efficacy
same,oral delivery of single-stranded sRNA nucleic acids into mouse blood,can effectively orally deliver
same,oral delivery of single-stranded sRNA nucleic acids into mouse femur,can effectively orally deliver
same,oral delivery of single-stranded sRNA nucleic acids into mouse heart tissue,can effectively orally deliver
same,oral delivery of single-stranded sRNA nucleic acids into mouse intestinal tissue,can effectively orally deliver
same,oral delivery of single-stranded sRNA nucleic acids into mouse kidney tissue,can effectively orally deliver
same,oral delivery of single-stranded sRNA nucleic acids into mouse liver tissue,can effectively orally deliver
same,oral delivery of single-stranded sRNA nucleic acids into mouse lung tissue,can effectively orally deliver
same,oral delivery of single-stranded sRNA nucleic acids into mouse spleen tissue,can effectively orally deliver
same,oral delivery of single-stranded sRNA nucleic acids into mouse stomach tissue,can effectively orally deliver
C[C@]12CCC(=O)C=C1CC[C@H]1[C@@H]3CC[C@](O)(C(=O)CO)[C@@]3(C)C[C@H](O)[C@@]12F [Lipid 534],delivery efficacy over each tissue and blood tested (broad-spectrum delivery),exhibited the best delivery efficacy
same,oral delivery of single-stranded sRNA nucleic acids into mouse blood,can effectively orally deliver
same,oral delivery of single-stranded sRNA nucleic acids into mouse brain tissue,can effectively orally deliver
same,oral delivery of single-stranded sRNA nucleic acids into mouse femur,can effectively orally deliver
same,oral delivery of single-stranded sRNA nucleic acids into mouse heart tissue,can effectively orally deliver
same,oral delivery of single-stranded sRNA nucleic acids into mouse intestinal tissue,can effectively orally deliver
same,oral delivery of single-stranded sRNA nucleic acids into mouse kidney tissue,can effectively orally deliver
same,oral delivery of single-stranded sRNA nucleic acids into mouse liver tissue,can effectively orally deliver
same,oral delivery of single-stranded sRNA nucleic acids into mouse lung tissue,can effectively orally deliver
same,oral delivery of single-stranded sRNA nucleic acids into mouse spleen tissue,can effectively orally deliver
same,oral delivery of single-stranded sRNA nucleic acids into mouse stomach tissue,can effectively orally deliver
CC(C)CC[C@@H](O)[C@](C)(O)[C@H]1CC[C@@]2(O)C3=CC(=O)[C@@H]4C[C@@H](O)[C@@H](O)C[C@]4(C)[C@H]3CC[C@]12C [Lipid 538],delivery efficacy over each tissue and blood tested (broad-spectrum delivery),exhibited the best delivery efficacy
same,oral delivery of single-stranded sRNA nucleic acids into mouse blood,can effectively orally deliver
same,oral delivery of single-stranded sRNA nucleic acids into mouse brain tissue,can effectively orally deliver
same,oral delivery of single-stranded sRNA nucleic acids into mouse femur,can effectively orally deliver
same,oral delivery of single-stranded sRNA nucleic acids into mouse heart tissue,can effectively orally deliver
same,oral delivery of single-stranded sRNA nucleic acids into mouse intestinal tissue,can effectively orally deliver
same,oral delivery of single-stranded sRNA nucleic acids into mouse kidney tissue,can effectively orally deliver
same,oral delivery of single-stranded sRNA nucleic acids into mouse liver tissue,can effectively orally deliver
same,oral delivery of single-stranded sRNA nucleic acids into mouse lung tissue,can effectively orally deliver
same,oral delivery of single-stranded sRNA nucleic acids into mouse spleen tissue,can effectively orally deliver
same,oral delivery of single-stranded sRNA nucleic acids into mouse stomach tissue,can effectively orally deliver
C[C@]12CCC(=O)C[C@@H]1CC[C@@H]1[C@@H]2CC[C@@]2(C)[C@H]1CC[C@]2(C)O [Lipid 539],delivery efficacy over each tissue and blood tested (broad-spectrum delivery),exhibited the best delivery efficacy
same,oral delivery of single-stranded sRNA nucleic acids into mouse blood,can effectively orally deliver
same,oral delivery of single-stranded sRNA nucleic acids into mouse brain tissue,can effectively orally deliver
same,oral delivery of single-stranded sRNA nucleic acids into mouse femur,can effectively orally deliver
same,oral delivery of single-stranded sRNA nucleic acids into mouse heart tissue,can effectively orally deliver
same,oral delivery of single-stranded sRNA nucleic acids into mouse intestinal tissue,can effectively orally deliver
same,oral delivery of single-stranded sRNA nucleic acids into mouse kidney tissue,can effectively orally deliver
same,oral delivery of single-stranded sRNA nucleic acids into mouse liver tissue,can effectively orally deliver
same,oral delivery of single-stranded sRNA nucleic acids into mouse lung tissue,can effectively orally deliver
same,oral delivery of single-stranded sRNA nucleic acids into mouse spleen tissue,can effectively orally deliver
same,oral delivery of single-stranded sRNA nucleic acids into mouse stomach tissue,can effectively orally deliver
C=C1/C(=C\C=C2/CCC[C@]3(C)[C@@H]([C@H](C)OCCC(C)(C)O)CC[C@@H]23)C[C@@H](O)C[C@@H]1O [Lipid 540],delivery efficacy over each tissue and blood tested (broad-spectrum delivery),exhibited the best delivery efficacy
same,oral delivery of single-stranded sRNA nucleic acids into mouse blood,can effectively orally deliver
same,oral delivery of single-stranded sRNA nucleic acids into mouse brain tissue,can effectively orally deliver
same,oral delivery of single-stranded sRNA nucleic acids into mouse femur,can effectively orally deliver
same,oral delivery of single-stranded sRNA nucleic acids into mouse heart tissue,can effectively orally deliver
same,oral delivery of single-stranded sRNA nucleic acids into mouse intestinal tissue,can effectively orally deliver
same,oral delivery of single-stranded sRNA nucleic acids into mouse kidney tissue,can effectively orally deliver
same,oral delivery of single-stranded sRNA nucleic acids into mouse liver tissue,can effectively orally deliver
same,oral delivery of single-stranded sRNA nucleic acids into mouse lung tissue,can effectively orally deliver
same,oral delivery of single-stranded sRNA nucleic acids into mouse spleen tissue,can effectively orally deliver
same,oral delivery of single-stranded sRNA nucleic acids into mouse stomach tissue,can effectively orally deliver
